Counter-ions that a name gives are not always drawn. Like-named read-outs stand apart in the source and are kept apart here.
Assays:
[1] = system: acetylcholine induced abdominal constriction; test: prevention of acetylcholine induced abdominal constriction in mice; format: in vivo; details: for ED50: Mus musculus, 0.5 h, analgesic alone, oral, mice, acetylcholine challenge 30 minutes after treatment
Experimental: Mature, male Swiss-Webster mice (weighing 25-30 g) were utilized in determining the analgesic effects of the compositions. The mice were all dosed orally with glucosamine sulfate, which was completely dissolved in distilled water, and a selected analgesic (ibuprofen, diclofenac, tramadol HCl, or acetaminophen), which was completely dissolved in distilled water or in distilled water containing 2% by volume of TWEEN®-80 containing 100% polysorbate 80. Mice were dosed at 10 mL/kg.
The procedure used in detecting and comparing the analgesic activity of different classes of analgesic drugs was the prevention of acetylcholine induced abdominal constriction in mice.
Mice were treated with various doses of glucosamine sulfate alone, analgesic alone, combined doses of glucosamine sulfate and analgesic, or vehicle such as distilled water containing 2% by volume of TWEEN®-80. Intraperitoneal injection of a challenge dose of acetylcholine bromide was administered 30 minutes after treatment. […] For scoring purposes an “abdominal constriction” was defined as a contraction of the abdominal musculature accompanied by arching of the back and extension of the limbs. […] Each mouse was tested only once.
Doses of the combinations were coded to permit complete randomization of the tests.

[2] = system: acetylcholine induced abdominal constriction; test: as above; format: in vivo

CC(=O)Nc1ccc(O)cc1 [Acetaminophen] was tested. Which No. protected/no. tested ([1]; acetaminophen 62.5 mg/kg alone) did it give?
The No. protected/no. tested was 1/10.

What about the No. protected/no. tested ([1]; acetaminophen 125 mg/kg alone) of the same compound?
The No. protected/no. tested was 4/10.

What about the No. protected/no. tested ([1]; acetaminophen 250 mg/kg alone) of the same compound?
Its No. protected/no. tested is 8/10.

Which results are given for CC(=O)Oc1ccccc1C(=O)O [Aspirin]?
ED50 [1]: 109 mg/kg; No. protected/no. tested ([2]; ASA 50 mg/kg alone): 1/10; No. protected/no. tested ([2]; ASA 100 mg/kg alone): 4/10; No. protected/no. tested ([2]; ASA 150 mg/kg alone): 8/10; No. protected/no. tested ([2]; ASA 200 mg/kg alone): 7/10

How did the ED50 [1] turn out when O=C(O)Cc1ccccc1Nc1c(Cl)cccc1Cl [Diclofenac] was run?
The ED50 was 1.14 mg/kg.

CC(C)Cc1ccc(C(C)C(=O)O)cc1 (centres unmarked) [Ibuprofen, 2-(p-isobutylphenyl)propionic acid] was tested. Which ED50 [1] did it give?
Its ED50 is 26.1 ± 3.41 mg/kg.

What about the No. protected/no. tested ([1]; ibuprofen 10 mg/kg alone) of the same compound?
Its No. protected/no. tested is 1/10.

And the No. protected/no. tested ([1]; ibuprofen 13.91 mg/kg alone)?
Its No. protected/no. tested is 1/10.

And the No. protected/no. tested ([1]; ibuprofen 20.0 mg/kg alone)?
Its No. protected/no. tested is 4/10.

What about the No. protected/no. tested ([1]; ibuprofen 41.74 mg/kg alone) of the same compound?
The No. protected/no. tested was 8/10.

And the No. protected/no. tested ([1]; ibuprofen 100 mg/kg alone)?
Its No. protected/no. tested is 9/10.

What about the No. protected/no. tested ([2]; ibuprofen 27.8 mg/kg alone) of the same compound?
Its No. protected/no. tested is 6/10.

What about the No. protected/no. tested ([2]; ibuprofen 30.0 mg/kg alone) of the same compound?
Its No. protected/no. tested is 6/10.

Which results are given for COc1ccc2c(c1)c(CC(=O)O)c(C)n2C(=O)c1ccc(Cl)cc1 [Indomethacin]?
ED50 [1]: 3.66 mg/kg; No. protected/no. tested ([2]; indomethacin 2.5 mg/kg alone): 4/10; No. protected/no. tested ([2]; indomethacin 5.0 mg/kg alone): 6/10; No. protected/no. tested ([2]; indomethacin 10.0 mg/kg alone): 7/10

For CC(C)Cc1ccc([C@H](C)C(=O)O)cc1 [S(+) Ibuprofen], which No. protected/no. tested ([2]; Group A: S(+) ibuprofen 15 mg/kg alone) is on record?
Its No. protected/no. tested is 2/10.

What about the No. protected/no. tested ([2]; Group B: S(+) ibuprofen 30 mg/kg alone) of the same compound?
The No. protected/no. tested was 4/10.

And the No. protected/no. tested ([2]; Group C: S(+) ibuprofen 60 mg/kg alone)?
The No. protected/no. tested was 6/10.

And the No. protected/no. tested ([2]; Group D: S(+) ibuprofen 120 mg/kg alone)?
The No. protected/no. tested was 7/10.

COc1cccc(C2(O)CCCCC2CN(C)C)c1 (centres unmarked) [Tramadol HCl] was tested. Which ED50 ([2]; Mus musculus, 0.5 h, read-out: ED50 (alone)) did it give?
Its ED50 is 8.05 mg/kg.

Source: patent publication US6900189B2, “Analgesic and glucosamine compositions” (priority 2000, dated 2005)
